The target of assay [1] is T1, orexin-2 receptor (hOX2R) (Homo sapiens, UniProt O43614).
T1 construct: expressed in transfected cells; host or cells: Chinese hamster ovary (CHO) cells
T1 sequence (O43614 1-444): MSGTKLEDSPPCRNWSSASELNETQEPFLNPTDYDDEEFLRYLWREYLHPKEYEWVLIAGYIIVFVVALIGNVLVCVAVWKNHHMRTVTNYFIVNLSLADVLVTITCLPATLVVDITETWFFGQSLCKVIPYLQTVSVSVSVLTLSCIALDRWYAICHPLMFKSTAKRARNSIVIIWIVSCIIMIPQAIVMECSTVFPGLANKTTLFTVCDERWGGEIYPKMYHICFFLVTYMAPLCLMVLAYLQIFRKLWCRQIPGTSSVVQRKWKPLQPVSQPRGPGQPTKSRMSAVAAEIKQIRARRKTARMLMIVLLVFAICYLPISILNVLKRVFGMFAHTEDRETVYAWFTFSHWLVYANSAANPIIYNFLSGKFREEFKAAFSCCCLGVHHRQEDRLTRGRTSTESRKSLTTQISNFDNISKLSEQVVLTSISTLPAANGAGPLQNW
In words: Orexin antagonistic activity assay (intracellular Ca2+, FDSS) in CHO cells expressing hOX2R. The note with it: CHO cells expressing hOX2R; ligand peptide 3 nM; Fluo-3 maximum fluorescence intensity; read-out: IC50 value OX2. The format is cell-based. Here is the method: (§1) The antagonistic activity of each test compound against human orexin-1 receptor (hOX1R) and orexin-2 receptor (hOX2R) was assayed by a modification of a method described in the literature (Toshikatsu Okumura et al., Biochemical and Biophysical Research Communications 280, 976-981, 2001). Chinese hamster ovary (CHO) cells forced to express hOX1R or hOX2R were inoculated at a density of 20,000 cells/well to a 96-well Black clear bottom plate (Nunc) and cultured at 37° C. for 16 hours under 5% CO2 conditions in a Ham's F-12 medium containing 0.1 mM MEM nonessential amino acids, 0.5 mg/ml G418, and 10% fetal bovine serum (all from Invitrogen Corp.). After removal of the medium, 100 μL of a buffer solution for assay (25 mM HEPES (Dojindo Laboratories), Hanks' balanced salt solution (Invitrogen Corp.), 0.1% bovine serum albumin, 2.5 mM probenecid, and 200 μg/ml Amaranth (all from Sigma-Aldrich Corp.), pH 7.4) containing 0.5 μM Fluo-3 AM ester (Dojindo Laboratories) was added to the cells, which were then incubated at 37° C. for 60 minutes under 5% CO2 conditions. After removal of the buffer solution for assay containing Fluo-3 AM ester, each test compound was dissolved at a concentration of 10 mM in dimethyl sulfoxide and diluted with a buffer solution for assay. Then, 150 μL of the solution was added to the cells, which were then incubated for 30 minutes.
(§2) A ligand peptide (Pyr-[…]NH2; Peptide Institute, Inc.) derived from human orexin-A by the substitution of two amino acids was diluted with a buffer solution for assay to final concentrations of 300 pM for hOX1R and 3 nM for hOX2R. Reaction was initiated by the addition of 50 μL of this ligand solution. The fluorescence intensity of the reaction was measured in each well every second for 3 minutes using Functional Drug Screening System (FDSS; manufactured by Hamamatsu Photonics K.K.), and the maximum fluorescence intensity was used as an index for intracellular Ca^2+ concentration to determine antagonistic activity. The antagonistic activity of the test compound was calculated with fluorescence intensity from a well supplemented with only a diluting buffer solution as 100% and fluorescence intensity from a well supplemented with a buffer solution free from the ligand and the compound as 0%. The 50% inhibitory concentration (IC50 value) was determined on the basis of fluorescence intensity derived from the test compound added at varying concentrations.

For assay [2], the target named is T2, human orexin-1 receptor (hOX1R) (Homo sapiens, UniProt O43613).
T2 construct: expressed in transfected cells; host or cells: Chinese hamster ovary (CHO) cells
T2 sequence (O43613 1-425): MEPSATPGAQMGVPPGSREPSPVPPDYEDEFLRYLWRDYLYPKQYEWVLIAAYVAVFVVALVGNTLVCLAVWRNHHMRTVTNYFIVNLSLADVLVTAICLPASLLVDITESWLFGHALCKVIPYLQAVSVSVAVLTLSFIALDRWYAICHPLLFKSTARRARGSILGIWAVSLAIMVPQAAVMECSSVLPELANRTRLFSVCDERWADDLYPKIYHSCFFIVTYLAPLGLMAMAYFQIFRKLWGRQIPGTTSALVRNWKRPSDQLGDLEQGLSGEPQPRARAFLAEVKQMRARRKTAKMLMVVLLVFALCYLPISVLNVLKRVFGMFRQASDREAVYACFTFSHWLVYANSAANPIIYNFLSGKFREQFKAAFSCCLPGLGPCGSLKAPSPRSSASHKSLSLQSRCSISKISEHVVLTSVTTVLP
The assay can be described thus: Orexin antagonistic activity assay (intracellular Ca2+, FDSS) in CHO cells expressing hOX1R. The format is cell-based. The note with it: CHO cells expressing hOX1R; ligand peptide 300 pM; Fluo-3 maximum fluorescence intensity; read-out: IC50 value OX1. Here is the method:
as §1, §2

Each structure is given as a SMILES string.

The IC50 is the concentration that gives 50% inhibition.

Regarding `Cc1ccc(-c2ncccn2)c(C(=O)N2C[C@H](c3nc4ccc(Cl)cc4o3)CC[C@H]2C)c1` [Example 44, [(2R,5R)-5-(6-Chloro-1,3-benzoxazol-2-yl)-2-methylpiperidin-1-yl][5-methyl-2-(pyrimidin-2-yl)phenyl]methanone], the results for the IC50 in assay [1] and in assay [2] were 23.1 nM and 9.1 nM, respectively.
Taken in the same sequence, the figures for `C[C@@H]1CC[C@@H](c2nc3cc(Cl)ccc3o2)CN1C(=O)c1ccc(Cl)cc1-n1nccn1` [Example 27, [(2R,5R)-5-(5-Chloro-1,3-benzoxazol-2-yl)-2-methylpiperidin-1-yl][4-chloro-2-(2H-1,2,3-triazol-2-yl)phenyl]methanone] were 187 nM and 1790 nM.
Taken in the same sequence, the figures for `C[C@@H]1CC[C@@H](c2nc3cc(Cl)cnc3o2)CN1C(=O)c1ccc(F)cc1-n1nccn1` [Example 72, [(2R,5R)-5-(6-Chloro[1,3]oxazolo[5,4-b]pyridin-2-yl)-2-methylpiperidin-1-yl][4-fluoro-2-(2H-1,2,3-triazol-2-yl)phenyl]methanone] were 80.5 nM and 412 nM.
As for `Cc1ccc(-n2nccn2)c(C(=O)N2C[C@H](c3nc4ccc(F)cc4o3)CC[C@H]2C)n1` (single isomer, unassigned) [Example 12, [(2R*,5R*)-5-(6-Fluoro-1,3-benzoxazol-2-yl)-2-methylpiperidin-1-yl][6-methyl-3-(2H-1,2,3-triazol-2-yl)pyridin-2-yl]methanone], the IC50 in assay [1] amounted to 105 nM; in assay [2], 111 nM.
In the same order, the values of `C[C@@H]1CC[C@@H](c2nc3cc(Cl)ccc3o2)CN1C(=O)c1cc(F)ccc1-c1ncccn1` (single isomer, unassigned) [Example 6, [(2R*,5R*)-5-(5-Chloro-1,3-benzoxazol-2-yl)-2-methylpiperidin-1-yl][5-fluoro-2-(pyrimidin-2-yl)phenyl]methanone] are 2.9 nM and 54.5 nM.
In the case of `Cc1ccc(-c2ncccn2)c(C(=O)N2C[C@H](c3nc4c(F)cc(F)cc4o3)CC[C@H]2C)c1` [Example 61, [(2R,5R)-5-(4,6-Difluoro-1,3-benzoxazol-2-yl)-2-methylpiperidin-1-yl][5-methyl-2-(pyrimidin-2-yl)phenyl]methanone], the IC50 was found to be 44.2 nM in assay [1] and 81.3 nM in assay [2].
Taken in the same sequence, the figures for `Cc1ccc(-c2ncccn2)c(C(=O)N2C[C@H](c3nc4cc(F)c(F)cc4o3)CC[C@H]2C)c1` [Example 51, [(2R,5R)-5-(5,6-Difluoro-1,3-benzoxazol-2-yl)-2-methylpiperidin-1-yl][5-methyl-2-(pyrimidin-2-yl)phenyl]methanone] were 7.3 nM and 13.5 nM.
Taken in the same sequence, the figures for `Cc1ccc(-n2nccn2)c(C(=O)N2C[C@H](c3nc4cc(Cl)cnc4o3)CC[C@H]2C)c1` [Example 71, [(2R,5R)-5-(6-Chloro[1,3]oxazolo[5,4-b]pyridin-2-yl)-2-methylpiperidin-1-yl][5-methyl-2-(2H-1,2,3-triazol-2-yl)phenyl]methanone] were 6.1 nM and 106 nM.
Taken in the same sequence, the figures for `C[C@@H]1CC[C@@H](c2nc3cc(Cl)ccc3o2)CN1C(=O)c1ccc(F)cc1-n1nccn1` [Example 14, [(2R,5R)-5-(5-Chloro-1,3-benzoxazol-2-yl)-2-methylpiperidin-1-yl][4-fluoro-2-(2H-1,2,3-triazol-2-yl)phenyl]methanone] were 8.8 nM and 41.6 nM.
On to `Cc1ccc(-n2nccn2)c(C(=O)N2C[C@H](c3nc4cc(F)c(F)cc4o3)CC[C@H]2C)c1` [Example 50, [(2R,5R)-5-(5,6-Difluoro-1,3-benzoxazol-2-yl)-2-methylpiperidin-1-yl][5-methyl-2-(2H-1,2,3-triazol-2-yl)phenyl]methanone], for which the half-inhibitory concentration (IC50) in assay [1] turned out to be 8.6 nM; in assay [2], 9.8 nM.
In the same order, the values of `Cc1ccc(-n2nccn2)c(C(=O)N2C[C@H](c3nc4cc(C#N)ccc4o3)CC[C@H]2C)c1` [Example 56, 2-[(3R,6R)-6-Methyl-1-[5-methyl-2-(2H-1,2,3-triazol-2-yl)benzoyl]piperidin-3-yl]-1,3-benzoxazole-5-carbonitrile] are 10 nM and 164 nM.
Taken in the same sequence, the figures for `Cc1ccc(-n2nccn2)c(C(=O)N2C[C@H](c3nc4cc(F)c(F)cc4o3)CC[C@H]2C)n1` [Example 54, [(2R,5R)-5-(5,6-Difluoro-1,3-benzoxazol-2-yl)-2-methylpiperidin-1-yl][6-methyl-3-(2H-1,2,3-triazol-2-yl)pyridin-2-yl]methanone] were 52 nM and 98.7 nM.
Taken in the same sequence, the figures for `C[C@@H]1CC[C@@H](c2nc3cc(Cl)ccc3o2)CN1C(=O)c1cccc(F)c1-c1ncccn1` [Example 18, [(2R,5R)-5-(5-Chloro-1,3-benzoxazol-2-yl)-2-methylpiperidin-1-yl][3-fluoro-2-(pyrimidin-2-yl)phenyl]methanone] were 59.5 nM and 301 nM.
Regarding `Cc1ccc(-c2ncccn2)c(C(=O)N2C[C@H](c3nc4cc(OC(F)(F)F)ccc4o3)CC[C@H]2C)c1` [Example 41, [5-Methyl-2-(pyrimidin-2-yl)phenyl]{(2R,5R)-2-methyl-5-[5-(trifluoromethoxy)-1,3-benzoxazol-2-yl]piperidin-1-yl}methanone], the half-maximal inhibitory concentration (IC50) stood at 45.1 nM in assay [1] and 177 nM in assay [2].
With `Cc1ccc(-n2nccn2)c(C(=O)N2C[C@H](c3nc4ccc(Cl)cc4o3)CC[C@H]2C)n1` [Example 46, [(2R,5R)-5-(6-Chloro-1,3-benzoxazol-2-yl)-2-methylpiperidin-1-yl][6-methyl-3-(2H-1,2,3-triazol-2-yl)pyridin-2-yl]methanone], the half-inhibitory concentration (IC50) in assay [1] was determined as 70 nM; in assay [2] it was 10 nM.
Taken in the same sequence, the figures for `Cc1ccc(-c2ncccn2)c(C(=O)N2CC(c3nc4cc(Cl)ccc4o3)CC[C@H]2C)n1` (single isomer, unassigned) [Example 4, [(2R*,5R*)-5-(5-Chloro-1,3-benzoxazol-2-yl)-2-methylpiperidin-1-yl][6-methyl-3-(pyrimidin-2-yl)pyridin-2-yl]methanone] were 17.2 nM and 4.3 nM.
In the same order, the values of `C[C@@H]1CC[C@@H](c2nc3cc(Cl)ccc3o2)CN1C(=O)c1cc(F)ccc1-c1ncc(F)cn1` [Example 23, [(2R,5R)-5-(5-Chloro-1,3-benzoxazol-2-yl)-2-methylpiperidin-1-yl][5-fluoro-2-(5-fluoropyrimidin-2-yl)phenyl]methanone] are 22.5 nM and 168 nM.
On to `C[C@@H]1CC[C@@H](c2nc3cc(C(F)(F)F)ccc3o2)CN1C(=O)c1cc(F)ccc1-c1ncccn1` [Example 38, [5-Fluoro-2-(pyrimidin-2-yl)phenyl]{(2R,5R)-2-methyl-5-[5-(trifluoromethyl)-1,3-benzoxazol-2-yl]piperidin-1-yl}methanone], for which the IC50 stood at 78.6 nM in assay [1] and 814 nM in assay [2].

Source of the values: patent publication US20140228377A1, “METHYLPIPERIDINE DERIVATIVE” (TAISHO PHARMACEUTICAL CO., LTD., priority 2011, published 2014).
